# Laboratory results as given in US9828386B2 (priority 2013, dated 2017).
# Like-named read-outs stand apart in the source and are kept apart here.
# Legend:
# Assay in all cases: cells
# Type in all cases: cell-based
# Hela cell line = conditions: read-out: IC50 (μM) Hela
# Method: (§1) Test of compounds of embodiment of the present invention on inhibiting tumor cell activity
# (§2) 3, cell lines: A549, BGC823, Hela cell line and normal human hepatocytes which are available from Wu Han boster Co., Ltd.;
# (§3) A549, BGC823, Hela cell line and normal human hepatocytes in logarithmic growth phase are subjected to 1000 rpm centrifugation for 5 min, supernatant is then discarded, moderate medium is suspended, the cell concentration is adjusted to 3.5×10^4/well, the cells were seeded in 96-wells culture plate, and following experimental groups are set:
# (§4) a negative control group; 35 test groups with same concentration (ie: groups of Compound (1) to Compound (35)); three control groups: groups of podophyllotoxin, 4′-demethylepipodophyllotoxin and etoposide.
# (§5) Taking RPMI1640 containing 10% of calf serum as nutrient solution, 0.10 mL of cells per well is incubated under conditions of 37° C., 5% CO2 and saturated humidity for 24 h to nearly be covered, then the nutrient solution is discarded. […] 100 μl of DMSO is added to each well, then vibrated at 37° C. by shaker table for 30 min, then measuring absorbance (OD) at 492 nm, calculating MTT ratio=OD value of drug group/OD value of the negative control group.
# BGC823 cell line = conditions: read-out: IC50 (μM) BGC823
# Method: as §1, §2, §3, §4, §5
# A549 cell line = conditions: read-out: IC50 (μM) A549
# Method: as §1, §2, §3, §4, §5
# [1] = Hela cells, MTT, 48 h cultivation
# [2] = BGC823 cells, MTT, 48 h cultivation
# [3] = A549 cells, MTT, 48 h cultivation
"IC50 (Hela cell line; Homo sapiens, Hela cells, MTT, 48 h cultivation)",Compound,IC50 (Hela cell line; [1]),IC50 (BGC823 cell line; [2]),IC50 (A549 cell line; [3]),"IC50 (Hela cell line; Homo sapiens, HeLa, 48 h)","IC50 (BGC823 cell line; Homo sapiens, BGC-823, 48 h)","IC50 (A549 cell line; Homo sapiens, A549, 48 h)"
,"COc1ccc(S(=O)(=O)Nc2nnc(SC3c4cc5c(cc4C(c4cc(OC)c(O)c(OC)c4)C4C(=O)OCC34)OCO5)s2)cc1 (stereo not drawn) [Compound 35, 4-S-[2-N-(4-methoxy-benzenesulfonamide-)-1,3,4-thiadiazole-5-]-4-deoxy-4′-demethylepipodophyllotoxin]",1.19 ± 0.57 µM,2.23 ± 0.69 µM,0.84 ± 0.62 µM,,,
,"COc1cc(C2c3cc4c(cc3C(Sc3nccc(N)n3)C3COC(=O)C23)OCO4)cc(OC)c1OC (stereo not drawn) [Compound 10, 4-S-(4-amino-pyrimidine-2)-4-deoxy-podophyllotoxin]",1.85 ± 0.12 µM,1.32 ± 0.15 µM,4.65 ± 0.26 µM,,,
,"COc1cc([C@@H]2c3cc4c(cc3[C@H](O)[C@H]3COC(=O)[C@H]23)OCO4)cc(OC)c1OC [podophyllotoxin, reference compound]",,,,55.53 ± 0.24 µM,75.81 ± 0.73 µM,67.18 ± 0.24 µM
,"COc1cc(C2c3cc4c(cc3C(Sc3n[nH]c(N)n3)C3COC(=O)C23)OCO4)cc(OC)c1OC (stereo not drawn) [Compound 1, 4-S-(3-amino-1,2,4-triazole-5)-4-deoxy-podophyllotoxin]",2.86 ± 0.34 µM,0.83 ± 0.14 µM,5.76 ± 0.34 µM,,,
,"COc1cc(C2c3cc4c(cc3C(Sc3nc5ccccc5o3)C3COC(=O)C23)OCO4)cc(OC)c1OC (stereo not drawn) [Compound 14, 4-S-(benzoxazole-2)-4-deoxy-podophyllotoxin]",0.92 ± 0.08 µM,0.21 ± 0.02 µM,1.01 ± 0.14 µM,,,
,"COc1ccc(S(=O)(=O)Nc2nnc(SC3c4cc5c(cc4C(c4cc(OC)c(OC)c(OC)c4)C4C(=O)OCC34)OCO5)s2)cc1 (stereo not drawn) [Compound 18, 4-S-[2-N-(4-methoxy-benzenesulfonamide-)-1,3,4-thiadiazole-5-]-4-deoxy-podophyllotoxin]",4.14 ± 0.47 µM,1.27 ± 0.13 µM,4.05 ± 0.15 µM,,,
,"COc1cc(C2c3cc4c(cc3C(Sc3ccncc3)C3COC(=O)C23)OCO4)cc(OC)c1O (stereo not drawn) [Compound 25, 4-S-(pyridin-4)-4-deoxy-4′-demethylepipodophyllotoxin]",0.73 ± 0.05 µM,4.76 ± 0.12 µM,2.66 ± 0.27 µM,,,
,"4-S-(5-methyl-1,2,4-triazole-3)-4-deoxy-4′-demethylepipodophyllotoxin [Compound 20]",6.62 ± 0.35 µM,0.21 ± 0.35 µM,0.35 ± 0.37 µM,,,
,"COc1cc(C2c3cc4c(cc3C(Sc3nc(N)n[nH]3)C3COC(=O)C23)OCO4)cc(OC)c1O (stereo not drawn) [Compound 19, 4-S-(3-amino-1,2,4-triazole-5)-4-deoxy-4′-demethylepipodophyllotoxin]",1.51 ± 0.37 µM,1.93 ± 1.67 µM,0.93 ± 0.84 µM,,,
,"COc1cc(C2c3cc4c(cc3C(Sc3ccccn3)C3COC(=O)C23)OCO4)cc(OC)c1OC (stereo not drawn) [Compound 5, 4-S-(pyridin-2)-4-deoxy-podophyllotoxin]",0.73 ± 0.05 µM,4.76 ± 0.12 µM,5.66 ± 0.47 µM,,,
,"COc1cc(C2c3cc4c(cc3C(Sc3nc(C)cc(C)n3)C3COC(=O)C23)OCO4)cc(OC)c1OC (stereo not drawn) [Compound 11, 4-S-(4,6-dimethyl-pyrimidine-2)-4-deoxy-podophyllotoxin]",0.11 ± 0.01 µM,1.99 ± 0.34 µM,3.31 ± 0.26 µM,,,
,"COc1cc(C2c3cc4c(cc3C(Sc3ccncc3)C3COC(=O)C23)OCO4)cc(OC)c1OC (stereo not drawn) [Compound 8, 4-S-(pyridin-4)-4-deoxy-podophyllotoxin]",3.85 ± 0.14 µM,1.52 ± 0.11 µM,8.12 ± 0.09 µM,,,
,"COc1cc(C2c3cc4c(cc3C(Sc3nc5ccccc5[nH]3)C3COC(=O)C23)OCO4)cc(OC)c1OC (stereo not drawn) [Compound 13, 4-S-(benzimidazol-2)-4-deoxy-podophyllotoxin]",3.1 ± 0.16 µM,2.32 ± 0.01 µM,6.76 ± 4.31 µM,,,
,"COc1cc(C2c3cc4c(cc3C(Sc3ncccc3C(=O)O)C3COC(=O)C23)OCO4)cc(OC)c1OC (stereo not drawn) [Compound 6, 4-S-(3-picolinate-2)-4-deoxy-podophyllotoxin]",1.71 ± 0.07 µM,2.65 ± 0.53 µM,0.83 ± 0.25 µM,,,
13.2 ± 1.65 µM,"COc1cc([C@@H]2c3cc4c(cc3[C@@H](O[C@@H]3O[C@@H]5CO[C@@H](C)O[C@H]5[C@H](O)[C@H]3O)[C@H]3COC(=O)[C@H]23)OCO4)cc(OC)c1O [etoposide, reference compound]",,,,,,
